Reference: publication PMC7056649 (Heliyon, 2020)
pIC50, pKi: −log10 of the molar value.

What was measured:
[1] = system: membrane-bound α-glucosidases on differentiated Caco-2 cells; assay: Membrane bound α-glucosidase inhibitory activity in differentiated Caco-2 cells; assay type: cell-based, human; conditions: 25 mM maltose, 0.1-100 μg/ml, 4 h; comparison in words
[2] = target: Saccharomyces cerevisiae α-glucosidase (Saccharomyces cerevisiae, UniProt P53341); assay: α-Glucosidase inhibitory activity and kinetic analysis; assay type: biochemical; conditions: for pKi: Ki, yeast α-glucosidase hydrolysis of PNPG; for Mode of Inhibition: PNPG substrate, determined by Lineweaver-Burk plots
[3] = target: T1, porcine pancreatic α-amylase (Sus scrofa, UniProt P00690); assay: α-Amylase inhibitory activity; assay type: biochemical; conditions: up to 600 μg/mL
T1 sequence (P00690 16-511): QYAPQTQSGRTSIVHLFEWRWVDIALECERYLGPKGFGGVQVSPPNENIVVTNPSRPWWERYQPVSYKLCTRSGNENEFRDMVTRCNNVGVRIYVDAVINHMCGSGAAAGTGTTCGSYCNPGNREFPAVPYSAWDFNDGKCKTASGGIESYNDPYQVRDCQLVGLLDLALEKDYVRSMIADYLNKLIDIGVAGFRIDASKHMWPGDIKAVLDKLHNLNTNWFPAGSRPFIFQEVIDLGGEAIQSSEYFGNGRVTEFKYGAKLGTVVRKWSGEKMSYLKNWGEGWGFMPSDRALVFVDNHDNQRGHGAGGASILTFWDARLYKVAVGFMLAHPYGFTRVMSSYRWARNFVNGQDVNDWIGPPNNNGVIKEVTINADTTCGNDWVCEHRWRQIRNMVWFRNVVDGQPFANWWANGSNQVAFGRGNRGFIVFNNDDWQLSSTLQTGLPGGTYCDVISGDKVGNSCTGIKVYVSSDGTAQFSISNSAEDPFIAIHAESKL

Caco-2 cells = conditions: ref Ahn et al., 2017, Mei et al., 2012; cited from earlier work

Sequence of Saccharomyces cerevisiae α-glucosidase (P53341 whole entry): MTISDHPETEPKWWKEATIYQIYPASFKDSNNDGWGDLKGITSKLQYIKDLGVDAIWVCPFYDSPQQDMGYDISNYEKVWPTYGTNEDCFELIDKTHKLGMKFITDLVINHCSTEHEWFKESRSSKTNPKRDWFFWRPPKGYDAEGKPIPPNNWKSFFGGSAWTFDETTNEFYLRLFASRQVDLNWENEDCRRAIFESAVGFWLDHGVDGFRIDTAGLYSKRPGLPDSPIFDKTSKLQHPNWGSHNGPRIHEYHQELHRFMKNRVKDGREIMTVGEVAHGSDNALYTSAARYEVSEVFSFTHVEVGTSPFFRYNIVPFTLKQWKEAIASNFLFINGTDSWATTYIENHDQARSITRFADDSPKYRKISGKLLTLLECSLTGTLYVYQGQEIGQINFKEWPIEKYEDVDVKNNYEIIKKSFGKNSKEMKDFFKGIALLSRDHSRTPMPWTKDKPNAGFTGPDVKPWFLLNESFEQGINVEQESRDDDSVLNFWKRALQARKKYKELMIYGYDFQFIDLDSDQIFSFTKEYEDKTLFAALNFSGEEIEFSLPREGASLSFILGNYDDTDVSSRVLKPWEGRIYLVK

SMILES | inhibition of maltose hydrolysis in differentiated Caco-2 cells [1] | pIC50 ([2]; IC50, substrate PNPG) | pKi ([2]; Dixon plots, value in brackets) | pKi ([2]; determined by Dixon plots) | Mode of Inhibition [2] | Mode of Inhibition ([2]; listed as oxyresveratrol) | inhibition of α-amylase [3] | re-export rate from Caco-2 cells (Caco-2 cells)
C[C@H]1O[C@H](O[C@H]2[C@H](O)[C@@H](O)[C@@H](O[C@H]3[C@H](O)[C@@H](O)C(O)O[C@@H]3CO)O[C@@H]2CO)[C@H](O)[C@@H](O)[C@@H]1N[C@H]1C=C(CO)[C@@H](O)[C@H](O)[C@H]1O (stereo partly drawn) [Acarbose, acarbose, reference compound] | far more susceptible to acarbose |  |  |  |  |  |  | 
Oc1cc(O)cc(/C=C/c2ccc(O)cc2O)c1 [Oxyresveratrol, trans-3,5,2′,4′-tetrahydroxystilbene] | lesser potency compared to acarbose | 3.69 | 3.65 | 3.65 | Non-competitive | non-competitively | no detectable inhibition | high
